pEC50, pKd: −log10 of the molar value.
What was measured:
[1] = target: T1, eIF4E wild-type (Mus musculus, UniProt P63073); assay: tryptophan fluorescence quenching titration of nucleoside/nucleotide binding; conditions: fluorescence spectroscopy, wild-type eIF4E; read-out: apparent dissociation constant (Kd) for eIF4E
T1 construct: made in house
Experimental: For fluorescence titrations, mouse eIF4E, which differs from human eIF4E by four nonconserved amino acids, was produced as described. For NMR spectroscopy, mouse eIF4E was expressed as a fusion with the B1 domain of protein G (G4E, kind gift of Gerhard Wagner, Harvard University, Cambridge, Mass.), in BL21 (DE-3) cells by induction with 0.8 mM isopropyl-β-D-thiogalactopyranoside at 18° C. for 20 h in M9 minimal media containing 1 g/l ^15NH4Cl as the sole nitrogen source (Cambridge Isotopes). Cells were lysed at 4° C. by sonication in 0.1 M NaCl/50 mM Tris.HCl (pH 7.5/0.5 mM EDTA/0.5% (vol/vol) Nonidet P-40/10 mM 2-mercaptoethanol/1 mM PMSF. Lysates were cleared by centrifugation at 30,000×g, adsorbed onto m^7G diphosphate-conjugated agarose (Amersham Pharmacia), and extensively washed with 0.1 M NaCl/20 mM Tris.HCl (pH 7.5)/0.5 mM EDTA (Buffer A) at 4° C. Subsequently, beads were washed with 0.1 mM GTP in Buffer A, and G4E was eluted with 5 mM m^7G in Buffer A. Eluate was diluted with 20 mM Na2PO4 (pH 7.5) to reduce NaCl concentration to 50 mM, applied to Sepharose Q anion exchange column (Amersham Pharmacia), and eluted with a linear gradient of NaCl in 20 mM Na2PO4 (pH 7.5) at 4° C. Eluate was dialyzed extensively against 0.1 M NaCl/50 mM Na2PO4 (pH 6.5)/5 mM DTT at 4° C. to produce apo-G4E, as verified by using NMR spectroscopy and fluorescence titrations. Purity and identity of G4E were verified by using SDS/PAGE and electrospray ionization MS. Proteins were concentrated by using Amicon concentrators (Millipore).
Fluorescence measurements were performed by using a home-built fluorimeter, as described. All titrations were performed in 0.3 M NaCl/10 mM Na2PO4 (pH 7.5)/1 μM zinc in 0.3×0.3 cm^2 fluorescence cuvette (Hellma), by using eIF4E concentration of 2 μM. […] Corrected relative fluorescence intensities were normalized, and fluorescence quenching curves were fit to a heuristic single-site-binding expression: I/I0=Kd^n/(x^n+Kd^n) where x is ligand concentration, Kd is the apparent dissociation constant, and n is the Hill coefficient.

[2] = test system: cyclin D1 protein in NIH 3T3 cells; assay: Western blot of total extracts of treated cells; type: cell-based, mouse
Experimental: Protein concentrations were determined by using bicinchoninic acid-copper reduction (Pierce) and 20-μg aliquots were resolved using SDS/PAGE, transferred to Immobilon-P membrane (Millipore), blocked, and probed by using primary antibodies against eIF4E (1:5000, Transduction Laboratories), cyclin D1 (1:500, Becton Dickinson), β-actin (1:5000, Sigma), c-myc (1:1000, Becton Dickinson), and Sc35 (1:5000, Santa Cruz Biotechnology). Bound antibodies were chemiluminescently detected by using horseradish peroxidase-conjugated secondary antibodies (Amersham Pharmacia) and SuperSignal West Pico reagent according to manufacturer's instructions (Pierce).

[3] = target: T2, eIF4E (G4E) (UniProt P06654+P63073); assay: electrospray mass spectrometry of purified G4E with Ribavirin and GTP; type: binding, mouse; conditions: mixture of Ribavirin and GTP, fourfold excess
T2 construct: made in house; host or cells: E. coli BL21 (DE-3); construct a gift of Gerhard Wagner
Experimental: FIG. 10. […] Mass spectra were recorded using the Agilent Technologies 1100 LC/MSD integrated liquid chromatograph single quadrupole electrospray mass spectrometer (ES-MS) operating in positive ion mode. […]; The solution was electrosprayed directly at […] using nebulizer pressure of 20 psi, drying nitrogen gas at 200° C. and 10 L/min, and capillary voltage of 4.5 kV. (a) ES-MS spectrum plotting ion abundance in 20 uL of the above mixture as a function of the mass/charge ratio is shown. […]. Thus, obtaining affinities from mass spectrometry data is confounded by these differences in ionization.

[4] = test system: polysomal loading of eIF4E-sensitive mRNAs; assay: polysomal loading of mRNAs, ribosome purification and quantitative RT-PCR; type: cell-based, mouse
Experimental: Cell pellets (500 mg) were homogenized in 1 ml of ice cold lysis buffer (20 mM Hepes/10 mM magnesium acetate/100 mM potassium acetate, pH 7.5) supplemented with protease inhibitors (EDTA-free Complete, Roche) and 400 units/ml of SUPERasine (Ambion), and incubated for 30 min on ice with occasional vortexing. Lysates were sedimented at 3,000×g for 10 min at 4° C. to pellet nuclei and cell debris. Supernatants were sedimented at 12,000×g for 20 min at 4° C. to pellet mitochondria. Cleared supernatants were then sedimented at 50,000 rpm (SW 50.1 rotor, Beckman) for 50 min at 4° C. to pellet ribosomes. Ribosomal pellets were resuspended in 200 μl of ice-cold lysis buffer and layered on top of 10-40% sucrose gradient buffered with the lysis buffer, and centrifuged at 50,000 rpm for 80 min at 4° C. RNA content of fractions was ascertained by using the ratio of absorbance at 260:280 nm. […] RNA from each fraction was quantified by spectrophotometry and 40 ng was converted into cDNA by using the Sensiscript reverse transcription kit (Qiagen, Valencia, Calif.). Quantitative real-time PCR was carried out in triplicate by using the QuantiTect SYBR green real-time PCR Kit (Qiagen) in an Opticon thermal cycler (MJ Research, Waltham, Mass.). […] Obtained real-time PCR profiles were analyzed by using Opticon software (MJ Research).

[5] = test system: liver metastatic disease; conditions: Jeney et al. 2006; cited from earlier work
[6] = test system: Akt; assay: Akt phosphorylation; type: cell-based; conditions: FIGS. 35 and 36

T2 sequence (P06654+P63073 fused): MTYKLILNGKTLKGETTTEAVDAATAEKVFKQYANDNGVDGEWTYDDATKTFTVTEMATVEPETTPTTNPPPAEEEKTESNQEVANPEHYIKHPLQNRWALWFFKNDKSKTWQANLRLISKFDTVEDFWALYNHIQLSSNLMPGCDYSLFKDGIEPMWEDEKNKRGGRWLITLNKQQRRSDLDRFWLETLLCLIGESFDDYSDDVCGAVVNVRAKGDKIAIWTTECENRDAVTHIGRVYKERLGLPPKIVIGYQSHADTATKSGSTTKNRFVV
T1 sequence (P63073 whole entry): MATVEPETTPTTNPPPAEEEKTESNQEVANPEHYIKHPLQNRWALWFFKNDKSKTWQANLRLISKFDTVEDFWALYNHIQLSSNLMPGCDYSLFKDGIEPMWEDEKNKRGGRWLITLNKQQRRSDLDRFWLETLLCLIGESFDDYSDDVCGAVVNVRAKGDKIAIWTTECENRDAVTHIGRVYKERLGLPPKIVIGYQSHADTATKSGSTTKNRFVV

## NC(=O)c1ncn([C@@H]2O[C@H](CO)[C@@H](O)[C@H]2O)n1 [Ribavirin, 1-β-D-ribofuranosyl-1,2,4-triazole-3-carboxamide]
[1]
  pKd: 5.08
[2]
  levels of B-actin and eIF4E proteins: not reduced
[2]; Mus musculus, NIH3T3, read-out: apparent EC50 reduction of cyclin D1 protein levels
  pEC50: 6.00 to 7.00
[3]
  binding to eIF4E observed by mass shift: specific binding
[4]
  decrease of polysomal loading of VEGF and ODC mRNAs: > 1,000 fold
[4]; 1 μM
  polysomal loading of cyclin D1 mRNA: no significant effect
[5]
  effect on liver metastatic disease: reduce liver metastatic disease
[6]
  effect on Akt phosphorylation: inhibits

Source: US10472677B2, “Translational dysfunction based therapeutics” (Translational Therapeutics, Inc., priority 2005, dated 2019)
